Assay results taken from patent US5250540A, “Aminomethyl-substituted 2,3-dihydropyrano[2,3-b]pyridines and their use in medicaments” (Bayer Aktiengesellschaft, priority 1991, dated 1993).
Where a name gives a salt, the structure may show the parent alone.

Target: 5-HT1-receptor (5-hydroxytryptamine receptors of subtype 1)
Assay: receptor binding studies using preparations of calf hippocampus membranes, radioligand 3H-serotonin
Details: ^3 H-serotonin as radioactively labelled ligand
Source text: In Table 1 the high affinity of the compounds according to the invention for 5-hydroxytryptamine receptors of subtype 1 is exemplified. The values given relate to data obtained from receptor binding studies using preparations of calf hippocampus membranes. The radioactively labelled ligand used for this was ^3 H-serotonin.

Ki: 1 nM
SMILES: O=C1c2ccccc2S(=O)(=O)N1CCCCNCC1CCc2cccnc2O1 (stereo not shown) [Example 4, 2-N-(4-Butylsaccharinyl)-aminomethyl-2,3-dihydropyrano2,3-b]pyridine HCl salt]
